From ChEMBL document CHEMBL4184288, “Marine bis-γ-pyrone polypropionates of onchidione family and their effects on the XBP1 gene expression” (Bioorg Med Chem Lett, 2018)
The source made the active and inactive calls. The calls are words filed in the database; no cut-off is given here.

Tests used:
Mus musculus [1] = species: Mus musculus; assay: Activation of XBP1 mRNA splicing in tunicamycin-stimulated mouse B16F10 cells harboring XBP1-DBD-luc at 10 ug/ml treated 24 hrs post tunicamycin measured after 8 hrs by luciferase reporter gene assay relative to control
Mus musculus [2] = species: Mus musculus; assay: Activation of XBP1 mRNA splicing in tunicamycin-stimulated mouse B16F10 cells harboring XBP1-DBD-luc treated 24 hrs post tunicamycin measured after 8 hrs by luciferase reporter gene assay relative to control
Mus musculus [3] = species: Mus musculus; assay: Activation of XBP1 mRNA splicing in tunicamycin-stimulated mouse B16F10 cells harboring XBP1-DBD-luc at 1 ug/ml after 8 hrs by luciferase reporter gene assay relative to control

Activity (Mus musculus [1]) [%] | fold change (FC) (Mus musculus [1]) | Activity (Mus musculus [2]) | SMILES | Activity (Mus musculus [3]) [%]
210 | 2 | – | CCC(=O)[C@H](C)c1oc([C@H](C)[C@@H]2O[C@](O)([C@@H](C)c3oc(CC)c(C)c(=O)c3C)[C@@H](C)[C@@H](OC(=O)CC(C)C)[C@@H]2C)c(C)c(=O)c1C | –
– | – | inactive | CCc1oc([C@H](C)[C@@]2(O)O[C@@H]([C@@H](C)c3oc([C@@H](C)[C@@H](O)CC)c(C)c(=O)c3C)[C@@H](C)[C@H](OC(=O)CC(C)C)[C@@H]2C)c(C)c(=O)c1C | –
– | – | inactive | CCC(=O)O[C@@H](CC)[C@H](C)c1oc([C@H](C)[C@@H]2O[C@](O)([C@@H](C)c3oc(CC)c(C)c(=O)c3C)[C@@H](C)[C@@H](OC(=O)CC(C)C)[C@@H]2C)c(C)c(=O)c1C | –
– | – | – | CCCCCCCCCCCCC/C=C/C(=O)N[C@H]1[C@H](O[C@H]2O[C@H](CO)[C@@H](O)[C@H](O)[C@H]2NC(C)=O)O[C@H](CC(O)[C@H]2O[C@@H](n3ccc(=O)[nH]c3=O)[C@H](O)[C@@H]2O)[C@H](O)[C@@H]1O (some centres undefined) | 178
218 | 2 | – | CCC(=O)[C@@H](C)c1oc([C@H](C)[C@@H]2O[C@](O)([C@@H](C)c3oc(CC)c(C)c(=O)c3C)[C@@H](C)[C@@H](OC(=O)CC(C)C)[C@@H]2C)c(C)c(=O)c1C | –
234 | 2 | – | CCc1oc([C@H](C)[C@@]2(O)O[C@@H]([C@@H](C)c3oc([C@@H](C)[C@H](CC)OC(C)=O)c(C)c(=O)c3C)[C@@H](C)[C@H](OC(=O)CC(C)C)[C@@H]2C)c(C)c(=O)c1C | –
